One data set has as its target T1, tau protein (Homo sapiens, UniProt P10636).
T1 construct: BiFC fluorescent-protein fragments (type and halves not specified); expressed in transfected cells
Description: Tau-BiFC cell model, inhibition of Forskolin-induced tau protein aggregation. Format: cell-based. The conditions noted are these: Forskolin 30 μM, 48 hours; for Tau BiFC in cells Response (% @10 μM): 10 μM compound, Forskolin-only group = 100% tau protein-aggregated state; for IC50: tau-BiFC cells. The procedure, abridged: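 Tau-BiFC cells co-treated 48 h with 30 μM forskolin and compounds (1, 3, 10 μM screen; 0.01–30 μM dose-response). BiFC fluorescence normalized to forskolin-only (100% aggregation) minus untreated gives aggregation inhibition and IC50; viability as Hoechst-stained nuclei count relative to forskolin-only.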

The next data set addresses T2, CYP2C19 (Homo sapiens, UniProt P33261).
T2 construct: human liver microsomes (0.25 mg/mL); from tissue; host or cells: human liver microsomes
As to the kind of experiment: Inhibitory effect on CYP coenzyme activity, human liver microsomes. The class given is in vitro ADME. The conditions noted are these: 10 μM compound, human liver microsomes 0.25 mg/mL, substrate S-mephenytoin, 15 minutes. The procedure, abridged: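 Cocktail inhibition: HLM 0.25 mg/mL, 0.1 M PO4 pH 7.4, 37 °C; 5 min preinc., then 15 min + NADPH regen.; cpd 10 μM; probes phenacetin/diclofenac/S-mephenytoin/dextromethorphan/midazolam at 50/10/100/5/2.5 μM; LC-MS/MS MRM; % remaining activity vs no-compound control.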
On the technique in general: Microsomes from liver hold many membrane-bound enzymes, among them those of drug oxidation.

SMILES strings stand for the structures. Some results are limits rather than exact numbers.

T1 sequence (P10636 1-441 isoform P10636-8): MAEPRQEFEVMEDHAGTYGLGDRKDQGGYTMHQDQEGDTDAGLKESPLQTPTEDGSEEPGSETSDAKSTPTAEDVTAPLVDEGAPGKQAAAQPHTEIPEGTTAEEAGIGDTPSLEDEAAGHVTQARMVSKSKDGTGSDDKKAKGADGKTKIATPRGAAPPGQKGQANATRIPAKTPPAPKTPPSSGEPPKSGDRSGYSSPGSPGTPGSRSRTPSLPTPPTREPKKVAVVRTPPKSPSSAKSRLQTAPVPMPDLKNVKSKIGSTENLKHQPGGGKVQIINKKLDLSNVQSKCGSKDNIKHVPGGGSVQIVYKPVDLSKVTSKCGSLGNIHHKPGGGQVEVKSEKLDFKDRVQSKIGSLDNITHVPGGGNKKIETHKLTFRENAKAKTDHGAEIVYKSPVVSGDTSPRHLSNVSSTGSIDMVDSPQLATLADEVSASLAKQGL
T2 sequence (P33261 whole entry): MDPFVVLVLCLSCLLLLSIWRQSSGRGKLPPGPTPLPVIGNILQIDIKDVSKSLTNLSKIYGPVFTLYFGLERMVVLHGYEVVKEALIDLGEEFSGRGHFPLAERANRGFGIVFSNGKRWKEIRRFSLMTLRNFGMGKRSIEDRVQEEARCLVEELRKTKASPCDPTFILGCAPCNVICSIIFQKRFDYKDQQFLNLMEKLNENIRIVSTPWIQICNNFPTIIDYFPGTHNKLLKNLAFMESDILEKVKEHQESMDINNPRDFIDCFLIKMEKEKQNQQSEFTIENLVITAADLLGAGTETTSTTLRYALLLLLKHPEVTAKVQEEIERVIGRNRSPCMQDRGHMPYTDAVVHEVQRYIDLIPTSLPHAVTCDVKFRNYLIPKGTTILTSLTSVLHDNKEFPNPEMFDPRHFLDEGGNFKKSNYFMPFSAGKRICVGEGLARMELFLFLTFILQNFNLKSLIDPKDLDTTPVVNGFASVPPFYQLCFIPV

Usually IC50 stands for the concentration at which inhibition is half-maximal. Low readings indicate inhibition by little substance, high ones a need for much substance. Take `CC(C)n1c(=O)n(C(C)C)c2ncc(NN=C(C#N)C#N)cc21` [Compound 34, (1,3-diisopropyl-2-oxo-2,3-dihydro-1H-imidazo[4,5-b]pyridin-6-yl)carbonohydrazonoyl dicyanide]: on tau protein, the “Tau BiFC in cells Response (% @10 μM)” value was −45% and the IC50 came out at 50 nM. Moreover, the “CYP2C19 coenzyme activity (%) with respect to control group not treated” value on CYP2C19 turned out to be 88.8%.

`CCn1c(=O)n(C)c2ccc(NN=C(C#N)C#N)cc21` [Compound 35, (3-ethyl-1-methyl-2-oxo-2,3-dihydro-1H-benzo[d]imidazol-5-yl)carbonohydrazonoyl dicyanide]: on tau protein, the “Tau BiFC in cells Response (% @10 μM)” value is listed as −44% and the IC50 stood at 10 nM. At CYP2C19, the “CYP2C19 coenzyme activity (%) with respect to control group not treated” value worked out at 100%.

With `CC(C)n1c(=O)n(C)c2ccc(NN=C(C#N)C#N)cc21` [Compound 36, (3-isopropyl-1-methyl-2-oxo-2,3-dihydro-1H-benzo[d]imidazol-5-yl)carbonohydrazonoyl dicyanide], on tau protein, the “Tau BiFC in cells Response (% @10 μM)” value is −57% and half-maximal inhibition (IC50) was put at 20 nM. The “CYP2C19 coenzyme activity (%) with respect to control group not treated” value at CYP2C19 is recorded as 89.5%.

Regarding `Cn1c(=O)n(C(F)F)c2cc(NN=C(C#N)C#N)ccc21` [Compound 37, (3-(difluoromethyl)-1-methyl-2-oxo-2,3-dihydro-1H-benzo[d]imidazol-5-yl)carbonohydrazonoyl dicyanide], on tau protein, the “Tau BiFC in cells Response (% @10 μM)” value was −49% and the IC50 is 200 nM. In addition, the “CYP2C19 coenzyme activity (%) with respect to control group not treated” value at CYP2C19 came out at 90.7%.

For the molecule `CCn1c(=O)n(C)c2cc(NN=C(C#N)C#N)ccc21` [Compound 38, (1-ethyl-3-methyl-2-oxo-2,3-dihydro-1H-benzo[d]imidazol-5-yl)carbonohydrazonoyl dicyanide], at tau protein, the “Tau BiFC in cells Response (% @10 μM)” value was −31% and the IC50 is 30 nM. In addition, the “CYP2C19 coenzyme activity (%) with respect to control group not treated” value at CYP2C19 is reported as above 100%.

As to `CC(C)n1c(=O)n(C2CC2)c2ccc(NN=C(C#N)C#N)cc21` [Compound 42, (1-cyclopropyl-3-isopropyl-2-oxo-2,3-dihydro-1H-benzo[d]imidazol-5-yl)carbonohydrazonoyl dicyanide], at tau protein, the “Tau BiFC in cells Response (% @10 μM)” value is recorded as −52% and half-maximal inhibition (IC50) required 80 nM. The “CYP2C19 coenzyme activity (%) with respect to control group not treated” value on CYP2C19 was above 100%.

Take `CC(C)n1c(=O)n(C(F)F)c2cc(NN=C(C#N)C#N)ccc21` [Compound 43, (3-(difluoromethyl)-1-isopropyl-2-oxo-2,3-dihydro-1H-benzo[d]imidazol-5-yl)carbonohydrazonoyl dicyanide]: at tau protein, the “Tau BiFC in cells Response (% @10 μM)” value was −49% and half-maximal inhibition (IC50) required 10 nM. Besides, the “CYP2C19 coenzyme activity (%) with respect to control group not treated” value on CYP2C19 is recorded as 60.2%.

Regarding `CCn1c(=O)n(C)c2cc(NN=C(C#N)C#N)cnc21` [Compound 48, (3-ethyl-1-methyl-2-oxo-2,3-dihydro-1H-imidazo[4,5-b]pyridin-6-yl)carbonohydrazonoyl dicyanide], on tau protein, the “Tau BiFC in cells Response (% @10 μM)” value is −18% and the IC50 was found to be 60 nM. Also, the “CYP2C19 coenzyme activity (%) with respect to control group not treated” value at CYP2C19 is above 100%.

Turning to `CC(C)n1c(=O)n(C2CC2)c2ncc(NN=C(C#N)C#N)cc21` [Compound 53, (3-cyclopropyl-1-isopropyl-2-oxo-2,3-dihydro-1H-imidazo[4,5-b]pyridin-6-yl)carbonohydrazonoyl dicyanide], at tau protein, the “Tau BiFC in cells Response (% @10 μM)” value is recorded as −39% and half-maximal inhibition (IC50) was put at 160 nM. At CYP2C19, the “CYP2C19 coenzyme activity (%) with respect to control group not treated” value was above 100%.

For `CCn1c(=O)n(C(C)C)c2ncc(NN=C(C#N)C#N)cc21` [Compound 55, (1-ethyl-3-isopropyl-2-oxo-2,3-dihydro-1H-imidazo[4,5-b]pyridin-6-yl)carbonohydrazonoyl dicyanide], at tau protein, the “Tau BiFC in cells Response (% @10 μM)” value is recorded as −32% and it took 110 nM to reach half-maximal inhibition (IC50). Also, the “CYP2C19 coenzyme activity (%) with respect to control group not treated” value on CYP2C19 is listed as 73.1%.

The values above are taken from US12590066B2, “Fused-heterocyclyl-carbonohydrazonoyl dicyanide compounds and use thereof” (KOREA INSTITUTE OF SCIENCE AND TECHNOLOGY, priority 2020, dated 2026).
